Calls of active or inactive are those of the source.
Legend:
[1] = molecular target: T1, Trace amine-associated receptor 1 (Homo sapiens, UniProt Q96RJ0); assay: Fluorescence-based cell-based high throughput dose response assay to identify agonists of the human trace amine associated receptor 1 (TAAR1).; assay type: functional
T1 sequence (Q96RJ0 whole entry): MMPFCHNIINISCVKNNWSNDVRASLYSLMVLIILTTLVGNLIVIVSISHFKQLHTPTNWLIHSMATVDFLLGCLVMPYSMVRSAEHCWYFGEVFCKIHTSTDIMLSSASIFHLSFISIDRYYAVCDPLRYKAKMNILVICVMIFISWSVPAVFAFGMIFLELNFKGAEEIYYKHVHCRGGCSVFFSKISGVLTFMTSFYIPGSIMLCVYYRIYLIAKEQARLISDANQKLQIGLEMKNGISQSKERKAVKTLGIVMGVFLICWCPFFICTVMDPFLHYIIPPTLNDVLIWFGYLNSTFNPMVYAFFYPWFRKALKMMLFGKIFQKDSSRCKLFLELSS

cells [2] = assay type: functional, cell-based
cells [3] = assay type: functional, cell-based; remark: listed apart in the source
[4] = molecular target: T1, Trace amine-associated receptor 1; assay: Counterscreen for agonists of the human trace amine associated receptor 1 (hTAAR1): Fluorescence-based cell-based high throughput dose response assay to identify hTAAR1 agonist that also desensitize TAAR1 receptor response.; assay type: functional
Albumin = Albumin (Bos taurus, UniProt P02769); assay: Counterscreen for inhibitors of T-cell receptor (TCR)-CD3 interaction: Fluorescence-based biochemical high throughput dose response assay to identify inhibitors of T-cell receptor (TCR)-CD3 interaction using a TAMRA-labeled BSA probe.; assay type: functional
Chain of Albumin (P02769 whole entry): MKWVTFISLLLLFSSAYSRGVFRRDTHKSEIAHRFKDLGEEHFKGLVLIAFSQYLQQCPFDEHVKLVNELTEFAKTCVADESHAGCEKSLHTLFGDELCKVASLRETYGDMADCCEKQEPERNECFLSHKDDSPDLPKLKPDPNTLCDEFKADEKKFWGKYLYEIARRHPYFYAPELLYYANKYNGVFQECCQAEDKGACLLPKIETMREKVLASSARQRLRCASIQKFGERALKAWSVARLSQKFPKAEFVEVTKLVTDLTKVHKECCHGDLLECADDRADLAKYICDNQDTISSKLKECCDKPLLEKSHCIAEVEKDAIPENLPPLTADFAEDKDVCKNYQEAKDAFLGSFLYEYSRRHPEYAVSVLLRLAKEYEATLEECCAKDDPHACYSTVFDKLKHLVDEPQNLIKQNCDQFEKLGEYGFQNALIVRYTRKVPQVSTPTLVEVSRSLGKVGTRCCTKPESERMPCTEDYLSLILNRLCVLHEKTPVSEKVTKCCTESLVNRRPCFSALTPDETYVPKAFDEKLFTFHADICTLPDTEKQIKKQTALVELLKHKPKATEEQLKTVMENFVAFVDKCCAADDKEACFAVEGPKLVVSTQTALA

Compound: C/C(=N\CCc1ccccc1)C1=C(O)CCC1=O
- EC50 [1]: 1.94 µM (active)
- EC50 (cells [2]): > 29.9 µM (inactive)
- IC50 (cells [3]): > 29.9 µM (inactive)
- IC50 [4]: 8.63 µM (active)

Compound: CCC1=NN(C(=O)c2cccc([N+](=O)[O-])c2)C(O)(c2ccc(C)cc2)C1 (centres undefined)
- IC50 (Albumin): > 94.1 µM (inactive)

Compound: CCCOC1CCCN(C(=O)c2cc(Cl)c(Cl)cc2C(=O)O)C1 (centres undefined)
- EC50 [1]: 8.64 µM (active)
- EC50 (cells [2]): > 29.9 µM (inactive)
- IC50 (cells [3]): > 29.9 µM (inactive)
- IC50 [4]: > 29.9 µM (inactive)
